In patent US20030054332A1, “Markers for evaluating estrogenic activity” (priority 2001, published 2003):

Legend:
[1] = system: VEGF mRNA in VE-ERα cells; test: VEGF mRNA expression in VE-ERα cells by RNAse protection analysis; format: cell-based, human; details: VE-ERα cells treated with estrogen; RNAse protection analysis (FIG. 1, 100 nM)
Procedure: Estrogen receptor α (ERα)-enhanced vascular endothelial cells were prepared by infecting primary vascular endothelial cells with a retrovirus expressing human papillomavirus E6/E7, which leads to cellular immortalization. The retrovirus expression vector LXSN16E6E7 contains the immortalizing oncogenes E6 and E7 from human papilloma virus type 16 and a neomycin resistance gene. (Halbert, C. L., Demers, F. W., and Galloway, D. A. 1991. J Virol. 65: 473-478 (1)). This vector was transfected into PA317 cells, an amphotrophic packaging cell line, by calcium phosphate precipitation. Stably clonal lines were established by G418 selection. A negative control line expressing the empty retrovirus LXSN was established. Viruses produced by the clonal lines of PA317 were used to infect second passage primary human aortic endothelial cells obtained from Cell Applications, Inc., San Diego, Calif. Following infection and selection with G418, the LXSN infected cells ceased growth after approximately 7 passages where the LXSN16E6E7 infected cells were growth extended beyond 20 passages.
The cells expressed the expected endothelial markers. The levels of ERα were increased by infection of the cells with a retrovirus that expresses recombinant ERα (Green, S. et al, Nature 1986 320: 134-137). […]

[2] = system: cyclin A1 in Vascular endothelial cells; test: Cyclin A1 expression and induction, vascular endothelial cells; format: cell-based; parameters: key: (+) indicates detectable cyclin A1; (−) indicates no detectable cyclin A1 expression; details: immortalized human cells
Excerpt: (§1) Cyclin A1 expression and the effect of estradiol on expression in a number of immortalized and primary cells lines was further evaluated as described above.

[3] = system: ERE luciferase reporter in Chinese hamster ovary cells expressing transfected ERα; test: ERE transactivation (ERE luciferase reporter in Chinese hamster ovary cells expressing transfected ERα); format: cell-based
Procedure: (§2) In a further experiment, compounds known to have estrogen-like activity based on ER binding and ERE transactivation (ERE luciferase reporter in Chinese hamster ovary cells expressing transfected ERα) were evaluated. […] In order to confirm that these active compounds were working in an ER dependent manner, VE103-ERα cells were treated with a single dose of compound and increasing doses of ICI 164,384. […] All results are presented as percent of estrogen. PGI2 synthase numbers were based on EC50 from a 5-point dose response like that shown for estrogen in FIG. 5.

[4] = system: prostacyclin I2 synthase in VE-ERα cells; test: Estrogen treatment time course, RNase protection analysis of prostacyclin I2 synthase in VE-ERα cells; format: cell-based, human; details: at 24 hours
Procedure: This step is not necessary with genes identified by the UniGem where an estrogen treatment time course was performed. RNA was isolated and RNase protection analysis was used to determine estrogen responses (FIG. 2). All 20 of the genes examined were confirmed to be regulated to a higher fold modulation at 24 hours than the 6 hours used for the UniGem experiment.
The genes identified were relevant genes for vascular endothelial cells and in some cases consistent with the known effects of estrogen in the cardiovascular system. […] This enzyme is required for that last step in the synthesis of prostacyclin (PGI2). […] Another relevant gene was natriuretic peptide receptor B (NPR-B) which is the receptor for C-type natriuretic peptide (CNP), an endothelium dependent vasodilator.

[5] = system: cyclin A1 in Vascular smooth muscle cells; test: Cyclin A1 expression and induction, vascular smooth muscle cells; format: cell-based; parameters: key: (+) indicates detectable cyclin A1; (−) indicates no detectable cyclin A1 expression; details: immortalized human cells
Excerpt: as §1

[6] = system: cyclin A1 in Primary vascular endothelial cells; test: Cyclin A1 expression and induction, primary vascular endothelial cells; format: cell-based; parameters: key: (+) indicates detectable cyclin A1; (−) indicates no detectable cyclin A1 expression
Excerpt: as §1

[7] = system: cyclin A1 in Endometrial epithelial cells; test: Cyclin A1 expression and induction, endometrial epithelial cells; format: cell-based; parameters: key: (+) indicates detectable cyclin A1; (−) indicates no detectable cyclin A1 expression; details: immortalized human cells
Excerpt: as §1

[8] = system: cyclin A1 in ERα-enhanced vascular endothelial cells; test: Cyclin A1 RNase protection, ERα-enhanced vascular endothelial cells; format: cell-based, human; details: for cyclin A1 mRNA (in words): ERα-enhanced cells, 100 nM E2, 1 μM ICI 164384, 10 nM DES
Procedure: RNA was prepared using standard methods and RNase protection experiments were performed to evaluate the time course of cyclin A1 induction.
(§3) In a similar experiment, RNase protection assays were performed using estrogen receptor α- and estrogen receptor β-enhanced vascular endothelial cells. […] The results are presented in FIGS. 4A and 5B, which show the levels of various cyclins in estrogen receptor α- and estrogen receptor β-enhanced cells, respectively. Arrows indicate mRNA for each indicated cyclin. […] Cyclin A1 is the only cyclin in the panel increased by estradiol treatment.
as §1

MCF-7 cells = test: Estrogen regulation of marker genes in MCF-7 cells; format: cell-based
[9] = system: cyclin A1 in Primary vascular smooth muscle cells; test: Cyclin A1 expression and induction, primary vascular smooth muscle cells; format: cell-based; parameters: key: (+) indicates detectable cyclin A1; (−) indicates no detectable cyclin A1 expression
Excerpt: as §1

[10] = system: estrogen-regulated genes in VE-ERα cells; test: Multigene RNase protection assay (RPA) with VE-ERα cells; format: cell-based, human; details: for induction of expression of estrogen-regulated genes / effect on basal gene expression: 5 dose 0.1 nM-1000 nM for 24 hours
Excerpt: Another preferred assay is an RNase protection assay (RPA), which can be used to examine a panel of genes identified as estrogen-regulated in VE-ERα cells. The RPA is described in Gilman, 1993, In Current Protocols in Molecular Biology, Vol. 1 (Ausubel, F. M., R. Brent, R, E. Kingston, D. D. Moore, J. G. Seidman, J. A. Smith and K. Stuhl, eds.) pp. 4.7.1-4.7.8, John Wiley and Sons, Inc., New York, incorporated herein by reference in its entirety. Within this assay, which may be performed according to standard protocols, multiple probes can be used in a single reaction that requires as little as 1 μg of total RNA, resulting in high information content and a molecule profile for each compound on ERα. regulated gene expression in vascular endothelial cells. The RPA assay is very sensitive and is therefore able to detect low copy messages and distinguish low fold modulations typical of estrogen. This approach has a number of advantages over a reporter assay. The endogenous genes in the multigene assay will contain all endogenous gene regulatory elements and will not be restricted to activation occurring through an ERE element. Since VE-ERα cells are human cells that have been characterized and determined to maintain endothelial specific phenotypic markers and functions, tissue selective ER regulation can be investigated.
An RNase protection assay (RPA) was used to examine a panel of genes identified as estrogen-regulated in VE-ERα cells.
as §2

cyclin A1 in Osteoblasts = test: Cyclin A1 expression and induction, osteoblasts; format: cell-based; parameters: key: (+) indicates detectable cyclin A1; (−) indicates no detectable cyclin A1 expression; details: immortalized human cells
Excerpt: as §1

[11] = system: cyclin A1 in MCF-7 (mammary cancer cell line); test: Cyclin A1 expression and induction, MCF-7; format: cell-based; parameters: key: (+) indicates detectable cyclin A1; (−) indicates no detectable cyclin A1 expression
Excerpt: as §1

VE-ERα cells = test: Incyte UniGEM estrogen regulated gene profile of VE-ERα cells; format: cell-based, human; details: VE-ERα cells treated for 6 hours vs ethanol
Procedure: The Incyte UniGEM technology was used to survey a large panel of genes and to establish the estrogen regulated gene profile of the VE-ERα cells. VE-ERα cells were treated for 6 hours with 17-β estradiol or vehicle control (ethanol). Poly (A) RNA was isolated and this RNA was used to synthesize Cy3 or Cy5 labeled cDNA for simultaneous probing of Incyte UniGem V. Reciprocal labeling was done and two UniGems were probed (for one GEM the estradiol probe was labeled with Cy3 and ethanol probe with Cy5 and this labeling was reversed for the second GEM). UniGem V contains approximately 8500 human sequences including both known genes and ESTs. More than 20 genes were identified which were regulated more than 2 fold on both UniGEMs (Table I, indicated as UniGem. The sequence indicated in Table I with RF were identified by RNA fingerprinting, a more stringent version of differential display. RNA fingerprinting is based upon the use of arbitrary primers and primer combinations to carry out PCR amplifications from cDNA populations derived from cells or tissues of interest. The process generates a series of radioactively-labeled fragments which can be resolved by PAGE and visualized by autoradiography. (Mathieu-Daude, et al. Methods Enzymol 1999;303:309; Stone, et al., Nucleic Acids Res 1994 Jul 11;22(13):2612-8.)

[12] = system: cyclin A1 in ERβ-enhanced vascular endothelial cells; test: Cyclin A1 RNase protection, ERβ-enhanced vascular endothelial cells; format: cell-based, human; details: 100 nM E2, 1 μM ICI 164384, 10 nM DES
Procedure: as §3, §1

## C[C@]12CC[C@@H]3c4ccc(O)cc4CC[C@H]3[C@@H]1CC[C@@H]2O [17-β-estradiol]
[1]
  expression of vascular endothelial growth factor (VEGF) mRNA: increased three fold
[2]
  Cyclin A1 expression, Estradiol: +
[3]
  ERE transactivation: 100% of estrogen
[4]
  prostacyclin I2 synthase upregulation: 4 fold
[5]
  Cyclin A1 expression, Estradiol: −
[6]
  Cyclin A1 expression, Estradiol: +
[7]
  Cyclin A1 expression, Estradiol: +
[8]; 100 nM 17-β-estradiol vs 0.1% ethanol
  time to increase of cyclin A1 mRNA: ≤ 3 h
[8]
  cyclin A1 mRNA (in words): induction of cyclin A1 mRNA can occur
MCF-7 cells
  regulation of ATP sulfurylase/APS kinase, podocalyxin: found to be regulated by estrogen
  regulation of clusterin: not regulated by estrogen in a similar fashion
  regulation of prostacyclin I2 synthase and natriuretic peptide receptor B (NPR-B): not regulated by estrogen
[9]
  Cyclin A1 expression, Estradiol: −
[10]
  induction of expression of estrogen-regulated genes: induced expression
[10]; VE-ERα Cells, based on EC50 from a 5-point dose response
  PG I2 synthase: 100% of estrogen
Cyclin A1 in Osteoblasts
  Cyclin A1 expression, Estradiol: −
[11]
  Cyclin A1 expression, Estradiol: −
VE-ERα cells
  regulation of more than 20 genes on both UniGEMs: more than 2 fold
[12]
  cyclin A1 mRNA (in words): induction of cyclin A1 mRNA can occur

## CC/C(=C(/CC)c1ccc(O)cc1)c1ccc(O)cc1 [DES, diethylstilbestrol]
[8]
  cyclin A1 mRNA (in words): mimics the estradiol effect
[12]
  cyclin A1 mRNA (in words): mimics the estradiol effect

## CCCCN(C)C(=O)CCCCCCCCCC[C@@H]1Cc2cc(O)ccc2[C@H]2CC[C@]3(C)[C@@H](O)CC[C@H]3[C@H]12 [ICI 164,384]
[8]
  cyclin A1 mRNA (in words): inhibits this response
[10]
  effect on basal gene expression: lowered basal expression of some genes at higher concentrations
  induction of expression of estrogen-regulated genes: showed no induction of gene expression
[10]; VE103-ERα cells, single dose of compound and increasing doses of ICI 164,384
  inhibition of gene activation by active compounds: able to inhibit competitively the activation of these genes
[12]
  cyclin A1 mRNA (in words): inhibits this response

## O=C(c1ccc(OCCN2CCCCC2)cc1)c1c(-c2ccc(O)cc2)sc2cc(O)ccc12 [Raloxifene]
[10]
  effect on basal gene expression: repressing rather than inducing gene expression
  induction of expression of estrogen-regulated genes: showed no clear induction of any of the genes

## CC/C(=C(\c1ccccc1)c1ccc(OCCN(C)C)cc1)c1ccccc1 [tamoxifen]
[10]
  induction of expression of estrogen-regulated genes: showed no clear induction of any of the genes
